The results in this text go back to patent US20250066395A1, “Detecting and Separating Rare Earth Metal Mixtures” (Board of Regents, The University of Texas System, priority 2023, published 2025).

The text on this data set:
We have selected water and ethyl acetate (EtOAc) for their “green solvent” properties of being safe to handle, eco-friendly, little to no hazardous waste, etc.

Take scandium: the Soluble in water result is given as “soluble”.

In the case of yttrium, the Soluble in water entry was “soluble”.
